MIC data for 13 compounds are collected here from ChEMBL document CHEMBL3576783, “Synthesis and evaluation of 1,2,4-triazolo[1,5-a]pyrimidines as antibacterial agents against Enterococcus faecium” (J Med Chem, 2015).

This assay concerns Enterococcus faecium. The assay can be described thus: microbe, parasite or virus in culture. The note with it: NCTC 7171.

Values after ≈ are worked out from the molar mass of the structure shown.

Description: Antibacterial activity against Enterococcus faecium NCTC 7171 assessed as bacterial growth inhibition after 16-20 hrs by broth microdilution method

In turn, `CC1=C(C(N)=O)C(C2CCCCC2)n2nc(SCc3ccccc3)nc2N1` (stereo not drawn) showed an MIC of more than 128 µg/mL.

The compound `CC1=C(C(N)=O)C(c2cccc(C(C)C)c2)n2nc(SCc3ccccc3)nc2N1` (stereo not drawn) displayed an MIC of 16 µg/mL (≈ 38.1 µM).

In turn, `CCc1ccc(C2C(C(=O)Nc3ccccc3OC)=C(C)Nc3nc(SCc4ccccc4)nn32)cc1` (stereo not drawn) returned an MIC of more than 128 µg/mL.

Compound `CC1=C(C(=O)Nc2ccc(C)cc2C)C(c2ccc(C)cc2)n2nc(SCc3cccc(C)c3)nc2N1` (stereo not drawn) yielded an MIC of more than 128 µg/mL.

`CC1=C(C(N)=O)C(c2cccc(C(F)(F)F)c2)n2nc(SCc3ccccc3)nc2N1` (stereo not drawn) returned an MIC of 16 µg/mL (≈ 35.9 µM).

`CC1=C(C(=O)Nc2ccc(C)cc2C)C(c2cccs2)n2nc(SCc3cccc(Cl)c3)nc2N1` (stereo not drawn) gave an MIC of more than 128 µg/mL.

The compound `CC1=C(C(N)=O)C(c2ccccc2)n2nc(SCc3ccccc3)nc2N1` (stereo not drawn) came in with an MIC of more than 128 µg/mL.

In the case of `COc1cc(C2C(C(=O)Nc3ccc(C)cc3C)=C(C)Nc3nc(SCc4ccccc4)nn32)ccc1O` (stereo not drawn), the MIC is 16 µg/mL (≈ 30.3 µM).

`COc1ncccc1C1C(C(N)=O)=C(C)Nc2nc(SCc3ccccc3)nn21` (stereo not drawn) showed an MIC of 128 µg/mL (≈ 313 µM).

In turn, `CCc1ccc(C2C(C(N)=O)=C(C)Nc3nc(SCc4ccccc4)nn32)cc1` (stereo not drawn) yielded an MIC of 8 µg/mL (≈ 19.7 µM).

`CC1=C(C(N)=O)C(c2ccc(N(C)C)cc2)n2nc(N)nc2N1` (stereo not drawn) gave an MIC of more than 128 µg/mL.

On to `CC1=C(C(N)=O)C(c2ccc[nH]2)n2nc(SCc3ccccc3)nc2N1` (stereo not drawn), for which the MIC was more than 128 µg/mL.

Compound `CC1=C(C(N)=O)C(c2cccnc2)n2nc(SCc3ccccc3)nc2N1` (stereo not drawn) showed an MIC of more than 128 µg/mL.
